Assay results taken from US20240041833A1, “PHARMACEUTICAL COMBINATION PRODUCT COMPRISING A PROTOPARVOVIRUS AND AN ANTIVIRAL BENZIMIDAZOLE AND USES THEREOF FOR TREATING CANCER” (priority 2020, published 2024).

Tests used:
[1] = test system: different cancer cell lines of different origins; conditions: in vitro, in combination with H-1PV; cited from earlier work
[2] = test system: xenograft rat model of human pancreatic carcinoma; conditions: in vivo, in combination with H-1PV; cited from earlier work
[3] = test system: SNB-19 and U-373 glioma cells; conditions: drug 4-0.156 μM in combination with H-1PV MOI 1 pfu/cell, 72 h; compared to cells infected only with H-1PV
Experimental: The screening was performed with the Agilent BioCel automated workstation housed in an Ermaflux L2 biosafety cabinet (equipped with charcoal filters to trap gases). The glioma cell lines SNB-19 and U-373 were used for the screening. Cells were seeded with the BRAVO pipettor in 384 well cell culture microplate at 15% confluence in medium supplemented with 10% FBS and penicillin/streptomycin. After overnight incubation half of the plates was infected with wild-type H-1 PV at MOI of 1 plaque forming unit (pfu)/cell, the other half kept untreated. All cells were then treated with 5 concentrations of each of the 1,443 compounds (5-point dose curve incorporating a […] dilution step in duplicates, range 4-0.156 μM). […] PrestoBlue® is a cell viability indicator by using the reducing power of living cells to quantitatively measure the proliferation of cells. […] Conversion is proportional to the number of metabolically active cells and therefore can be measured quantitatively. Quantitation of fluorescent signal intensity of the cell culture supernatant was carried out using the HTS-ready Berthold MITHRAS LB 940 fluorescent plate reader at excitation and emission wavelengths of 569/586 nm (reduced resazurin form resorufin). […]

SNB-19 cells = assay: Real-time detection of cell viability and proliferation (xCELLIgence); format: cell-based, human; conditions: LDV and/or H-1PV, monitored every 30 min for 150 hours
Experimental: (§1) Human cancer cells were seeded into a 96-well E-plate (ACEA Biosciences, San Diego, CA, USA) at a density of 4000 cells/well. After 24 h, cells were infected or not with H-1PV and grown in the presence or absence of LDV. Growth of mock treated cells and virus infected cells was monitored in real-time every 30 min, for 6 days using the xCELLIgence System (ACEA). Cell proliferation was expressed as normalized cell index (CI), a parameter directly proportional to the number of attached cells per well and, therefore, strictly correlated with cell proliferation and viability. The growth curves represent the averages of the results of at least three replicates
(§2) The xCELLIgence system allows the monitoring in real time of cell proliferation and viability. This system was used to confirm the anti-cancer effect of H-1PV/LDV co-treatment. Three cancer cell lines were used for these experiments, namely glioma cell lines […], and pancreatic carcinoma cell line AsPC-1. Cells were treated (or not) with H-1PV in the presence or absence of LDV. Cell proliferation was monitored every 30 min for a total of 150 hours.
(§3) Cancer cells were seeded in a 96-well E-plate. […] Cell proliferation was monitored in real-time using the xCELLIgence system. The values in FIG. 4 are expressed as normalized cell index and plotted against time. […]

AsPC-1 cells = assay: as above; format: cell-based, human; conditions: LDV (1 and 4 μM) and/or H-1PV (up to MOI 100 pfu/cell), monitored for 150 hours
Experimental: as §1, §2, §3

[4] = test system: SNB-19 (glioma), AsPC-1 (pancreatic carcinoma), and PC3 (prostate cancer) cell lines; assay: LDH assay of treatment-induced cell lysis (Example 4); format: cell-based, human; conditions: H-1PV and/or increasing concentrations of LDV; 120 h (SNB19) or 96 h (AsPC1, PC3)
Experimental: (§4) In an lactate dehydrogenase assay (LDH assay) LDH released from a cell, e.g. due to cell lysis, oxidizes lactate to generate NADH, which then in turn reacts with a colorimetric substrate to generate a quantifiable colour change, which is directly correlated to the amount of LDH released and can, as such, used as a measure of cell lysis.
(§5) Cancer cell lines were seeded at a density of 3,000 (U-251, BxPC-3, Panc-1, DU-145, A-549, HOP-62 and Caki-1) or 4,000 (SNB-19, AsPC-1, PC3 and U-373) cells/well in 96-well plates in 50 μl of their respective culture medium supplemented with 10% heat inactivated FBS. After 24 h, 50 μl of FBS-free medium with or without H-1PV and/or Ledipasvir (LDV; Selleck Chemicals LLC, Houston, TX, USA) was added. Cells were incubated for 3-5 days and then subjected to […] LDH assay (CytoTox 96 non-radioactive cytotoxicity assay, Promega Madison, WI, USA), according to the manufacturer's instructions. For each condition tested, six replicates were prepared of which three were used for calculating the total lysis in the presence of detergent as previously described (25).
To further confirm the results shown in Examples 1-3, the oncolytic activity of H-1PV/LDV combination, was analysed by LDH assays. […]

[5] = test system: U-251, BxPC-3, Panc-1, Du-145, A-549, Hop-62 and Caki-1 cancer cell lines; assay: LDH assay of treatment-induced cell lysis (Example 6); format: cell-based, human; conditions: LDV, H-1PV or both, 96 h, seven cancer cell lines
Experimental: as §4, §5
H-1 PV can target and kill a broad spectrum of cancer cell lines from different tumour entities. […] Treatment-induced cell lysis was analysed by LDH assay. […]

U-373 glioma cells = assay: LDH assay of treatment-induced cell lysis (Example 5); format: cell-based, human; conditions: 4 μM LDV and/or increasing viral MOIs, 96 h
Experimental: as §4, §5
U-373 glioma cells treated (or not) with 4 μM LDV were infected (or not) with increasing viral MOIs (pfu/cell) and treatment-induced cell lysis was assessed by LDH assay.
U373 glioma cells, were grown for 24 h before being treated for 96 h as indicated. […]

[6] = test system: SNB-19, U-373 and AsPC-1 cell lines; assay: Optical microscopy analysis (IncuCyte ZOOM) of morphological/cytopathic effects; format: cell-based, human; conditions: 4 μM LDV and/or H-1PV MOI 1 (SNB-19) or 100 (U-373, AsPC-1); 4 days (96 h) post-treatment
Experimental: Two glioblastoma cell lines (SNB-19 and U-373) and a pancreatic cell line (AsPC-1) displaying different susceptibility to H-1 PV infection were treated (or not) with increasing amounts of H-1PV (MOI, pfu/cell) in the presence or absence of 4 μM LDV.
The cancer cell lines indicated in FIG. 3 were plated at the same density. After 24 h, cells were infected (or not) with H-1 PV used at the MOI (pfu/cell) of 1 (SNB-19), or 100 (U-373 and AsPC-1) in combination (or not) with 4 μM LDV. Light microscopy images were acquired using the IncuCyte ZOOM™ live cell imaging system (Essen BioScience, MI USA) at 96 h after treatment.

Row | SMILES | enhancement of H-1PV oncotoxicity [1] | enhancement of H-1PV oncotoxicity [2] | interaction with H-1PV: fold increase in H-1PV cytotoxicity (PrestoBlue) [3] | cell proliferation and viability (normalized cell index) (SNB-19 cells) | cell proliferation and viability (normalized cell index) (AsPC-1 cells) | treatment-induced cell lysis (LDH) [4] | treatment-induced cell lysis (LDH) [5] | treatment-induced cell lysis (LDH) (U-373 glioma cells) | cytotoxic / cytopathic effects and morphological changes [6]
1 | CN(C)CC[C@H](CSc1ccccc1)Nc1ccc(S(=O)(=O)NC(=O)c2ccc(N3CCN(Cc4ccccc4-c4ccc(Cl)cc4)CC3)cc2)cc1[N+](=O)[O-] [ABT-737] | enhance H-1PV oncotoxicity in a synergistic manner | enhance H-1PV oncotoxicity in a synergistic manner | synergized with H-1PV | – | – | – | – | – | –
2 | Oc1ccc(O)cc1 [Hydroquinone] | – | – | did not interact with H-1 PV | – | – | – | – | – | –
3 | COC(=O)N[C@H](C(=O)N1CC2(CC2)C[C@H]1c1ncc(-c2ccc3c(c2)C(F)(F)c2cc(-c4ccc5nc([C@@H]6[C@H]7CC[C@H](C7)N6C(=O)[C@@H](NC(=O)OC)C(C)C)[nH]c5c4)ccc2-3)[nH]1)C(C)C [LDV, methyl N-[(2S)-1-[(6S)-6-[5-[9,9-difluoro-7-[2-[(1R,3S,4S)-2-[(2S)-2-(methoxycarbonylamino)-3-methylbutanoyl]-2-azabicyclo[2.2.1]heptan-3-yl]-3H-benzimidazol-5-yl]fluoren-2-yl]-1H-imidazol-2-yl]-5-azaspiro[2.4]heptan-5-yl]-3-methyl-1-oxobutan-2-yl]carbamate] | – | – | – | did not affect cell proliferation | did not affect cell proliferation | did not induce cell lysis | did not induced cell lysis | did not induce cell lysis | did not induce any evident cytotoxic effects
